Experimental data taken from paper PMC11313180 (International Journal of Molecular Sciences, 2024).
Where two headings read alike, the source gives them in different places.

Key:
MCF-7 [1] = experiment: MTT cell viability assay, MCF-7; format: cell-based, human; conditions: for IC50: Homo sapiens
Protocol: (§1) MTT assays were performed as previously described. […] After incubation time, medium was replaced by MTT (solution of 5 mg/mL 3-(4,5-dimethylthiazol-2-yl)-2,5-diphenyl-tetrazoliumbromidin in phosphate buffered saline, Serva, Heidelberg, Germany).

T47D [2] = experiment: MTT cell viability assay, T47D; format: cell-based, human; conditions: for IC50: Homo sapiens, T47D
Protocol: as §1

MDA-MB-231 = experiment: MTT cell viability assay, MDA-MB-231; format: cell-based, human; conditions: for IC50: Homo sapiens
Protocol: MTT assays were performed as previously described. Cell numbers plated differed depending on each incubation time: MDA-MB-231 5000 c/w, MCF-7 5000 c/w (72 h) and 3000 c/w (120 h), T-47D 10,000 c/w (72 h) and 5000 c/w /120 h). After incubation time, medium was replaced by MTT (solution of 5 mg/mL 3-(4,5-dimethylthiazol-2-yl)-2,5-diphenyl-tetrazoliumbromidin in phosphate buffered saline, Serva, Heidelberg, Germany). After 10 min (MCF-7), 20 min (MDA-MB-231), and 30 min (T47D) and dissolving in DMSO (VWR, Langenfeld, Germany), absorbance was measured at 544 nm and 690 nm in a FLUOstar microplate reader (BMG LabTech, Offenburg, Germany).

MCF-7 [3] = experiment: Cell proliferation by counting Hoechst 33342-stained nuclei, MCF-7; format: cell-based, human; conditions: 1 µM, 72 h
Protocol: (§2) Figure 3 Cell proliferation of MCF-7 (a) and T47D cells (b) measured via Hoechst 33342 staining. […] Shown is one representative experiment out of a series of at least three experiments each performed with 3 replicates. Data are mean ± SD. Statistical comparison was performed using a t-test. Levels of significance: ** (p ≤ 0.01); **** (p ≤ 0.0001). Exe = exemestane. (R)-LA = (R)-α-lipoic acid.

T47D [4] = experiment: Cell proliferation by counting Hoechst 33342-stained nuclei, T47D; format: cell-based, human; conditions: 1 µM, 72 h
Protocol: as §2

MCF-7 [5] = experiment: Long-term (10 days) live/dead proliferation assay, calcein AM and Hoechst 33342, MCF-7; format: cell-based, human; conditions: 1 µM exemestane, 1 mM (R)-α-lipoic acid
Protocol: (§3) Cells were seeded on day one in 96-well plates. […] Then, cells were stained with calcein AM (Millipore Corporation, Billerica, MA, USA) and Hoechst 33342 (Tocris Bioscience, Bristol, UK) for 30 min and fluorescence images monitored by Leica DMi8 Thunder Imager (Leica Microsystems CMS GmbH, Wetzlar, Germany). Five images per well were monitored randomly. Calcein AM- and Hoechst 33342-stained area of the images (i.e., live proliferating cells) were evaluated.

T47D [6] = experiment: Long-term (10 days) live/dead proliferation assay, calcein AM and Hoechst 33342, T47D; format: cell-based, human; conditions: 1 µM exemestane, 1 mM (R)-α-lipoic acid
Protocol: as §3

[7] = system: caspase 3/7 in MCF-7 cells; experiment: Caspase 3/7 activation assay, MCF-7; format: cell-based, human; conditions: 24 h; 1 µM exemestane, 0.5 mM or 1 mM (R)-α-lipoic acid
Protocol: (§4) To analyze the compound-induced activation of capases 3 and 7, the CellEvent caspase 3/7 green detection reagent (Thermo Scientific, Wesel, Germany) was used according to the manufacturer’s instructions. […] After 24 h incubation, medium was removed, and cells were stained with 50 µL of CellEvent caspase 3/7 green detection reagent (2 µM in PBS supplemented with 5% heat-inactivated FBS). Cells were incubated for 30 min at 37 °C in a humidified incubator before imaging by using the Thermo Fisher ArrayScan XTI high content screening (HCS) system with a 10× magnification (Thermo Scientific). Hoechst 33342 was added for nuclei staining.

[8] = system: caspase 3/7 in T47D cells; experiment: Caspase 3/7 activation assay, T47D; format: cell-based, human; conditions: 24 h; 1 µM exemestane, 0.5 mM or 1 mM (R)-α-lipoic acid
Protocol: as §4

MCF-7 [9] = experiment: Immunoblotting, MCF-7; format: cell-based, human; conditions: 48 h; 1 mM (R)-α-lipoic acid, 1 µM exemestane
Protocol: (§5) A quantity of 20 or 40 µg of total protein as well as, from PageRuler Prestained Protein Ladder, 10–180 kDA (Thermo Scientific, Wesel, Germany), were resolved by SDS-Page (12% polyacrylamide gel) and transferred to polyvinylidene fluoride membrane (Millipore Corporation, Billerica, MA, USA). Blots were incubated with primary antibodies against acetylated a -tubulin (Cat. No. sc-23950), a -tubulin (Cat. No. sc-8035) (Santa Cruz Biotechnology, Heidelberg, Germany), acetyl histone h3 (Cat. No. 39140) and histone H3 (Cat. No. NB100-1669), ß-actine (Cat. No. sc-47778), p21 (AF1047), c-myk (Cat. No. MAB3696), APAF1 (Cat. No. MAB868), BIM (Cat. No. NBP1-76936), FOXO1 (Cat. No. C29H4), BCL-2 (Cat. No. AF810), and survivin (Cat. No. AF886). After another one-hour incubation with the appropriate HRP-conjugated secondary antibody, proteins were visualized by Intas Imager (Intas, Göttingen, Germany) using luminol reagent (Santa Cruz Biotechnology, Heidelberg, Germany).

T47D [10] = experiment: Immunoblotting, T47D; format: cell-based, human; conditions: 48 h; 1 mM (R)-α-lipoic acid, 1 µM exemestane
Protocol: as §5

MCF-7 cells = system: MCF-7 cells; design: method as in PMID 25738757; conditions: ref [30]; read-out: IC50 in MCF-7 cells, literature; cited from earlier work

C=C1C[C@@H]2[C@H](CC[C@]3(C)C(=O)CC[C@@H]23)[C@@]2(C)C=CC(=O)C=C12 [exemestane]
inhibition of cell viability, MCF-7 (MCF-7 [1]; 1 µM alone, 120 h MTT): 10.2% | increase in potency by prolongation of incubation time, MCF-7 (MCF-7 [1]; 120 h versus 72 h MTT): 1.8 fold | IC50 (MCF-7 [1]; MCF7, 72 h, read-out: IC50 MCF-7, 72 h MTT assay): 29.1 ± 1.3 µM | IC50 (MCF-7 [1]; MCF7, 72 h, read-out: IC50 of exemestane, MCF-7 (Figure 2a)): 42.6 µM | IC50 (MCF-7 [1]; MCF7, 120 h, read-out: IC50 of exemestane, MCF-7 (Figure 4a)): 16.9 µM | IC50 (MCF-7 [1]; MCF7, 120 h, IC50 ± SEM, read-out: IC50 MCF-7, 120 h MTT assay): 16.1 ± 0.84 µM | inhibition of cell viability, T47D (T47D [2]; 1 µM alone, 120 h MTT): no | increase in potency by prolongation of incubation time, T47D (T47D [2]; 120 h versus 72 h MTT): 1.8 fold | IC50 (T47D [2]; 72 h, read-out: IC50 T-47D, 72 h MTT assay): 50.6 ± 2.04 µM | IC50 (T47D [2]; 72 h, read-out: IC50 of exemestane, T-47D (Figure 2b)): 39.2 µM | IC50 (T47D [2]; 120 h, read-out: IC50 of exemestane, T-47D (Figure 4b)): 24.7 µM | IC50 (T47D [2]; 120 h, IC50 ± SEM, read-out: IC50 T-47D, 120 h MTT assay): 28.7 ± 0.75 µM | less potent in MDA-MB-231 compared to MCF-7 (MDA-MB-231; 72 h MTT IC50 ratio): 3 fold | less potent in MDA-MB-231 compared to T47D (MDA-MB-231; 72 h MTT IC50 ratio): 1.8 fold | increase in potency by prolongation of incubation time, MDA-MB-231 (MDA-MB-231; 120 h versus 72 h MTT): 1.7 fold | IC50 (MDA-MB-231; MDA-MB-231, 72 h, read-out: IC50 MDA-MB-231, 72 h MTT assay): 89.4 ± 2.86 µM | IC50 (MDA-MB-231; MDA-MB-231, 120 h, IC50 ± SEM, read-out: IC50 MDA-MB-231, 120 h MTT assay): 53.3 ± 3.62 µM | decrease of the number of nuclei, MCF-7 (MCF-7 [3]): around 37% | decrease of the number of nuclei, T47D (T47D [4]): around 37% | proliferation and doubling time over 10 days, MCF-7 (MCF-7 [5]): difference between the untreated control and 1 µM exemestane is small | proliferation and doubling time over 10 days, T47D (T47D [6]): doubling time was not different between exemestane treatment and untreated condition | caspase 3/7 activation, MCF-7 [7]: no caspase 3/7 activation | caspase 3/7 activation, T47D [8]: no caspase 3/7 activation | expression of survivin and c-myk, MCF-7 (MCF-7 [9]): not affected | expression of survivin and c-myk, T47D (T47D [10]): not affected | IC50 (MCF-7 cells): 30 µM
